From paper PMC6328172, “5-HT2 receptor binding, functional activity and selectivity in N-benzyltryptamines” (PLoS ONE, 2019)
Read-outs that look alike come from different tables or passages of the source.

Columns and labels:
human 5-HT2A receptor [1] = target: T1, human 5-HT2A receptor (Homo sapiens, UniProt P28223); experiment: Competition binding to the human 5-HT2A receptor ([3H]ketanserin, CHO-5-HT2A membranes); details: for Selectivity 5-HT2A/2C (binding): from Ki values, Table 1; for Ki: human receptor, [3H]ketanserin displacement
T1 construct: expressed in transfected cells; host or cells: CHO (CHO-5-HT2A cell line)
T1 sequence (P28223 whole entry): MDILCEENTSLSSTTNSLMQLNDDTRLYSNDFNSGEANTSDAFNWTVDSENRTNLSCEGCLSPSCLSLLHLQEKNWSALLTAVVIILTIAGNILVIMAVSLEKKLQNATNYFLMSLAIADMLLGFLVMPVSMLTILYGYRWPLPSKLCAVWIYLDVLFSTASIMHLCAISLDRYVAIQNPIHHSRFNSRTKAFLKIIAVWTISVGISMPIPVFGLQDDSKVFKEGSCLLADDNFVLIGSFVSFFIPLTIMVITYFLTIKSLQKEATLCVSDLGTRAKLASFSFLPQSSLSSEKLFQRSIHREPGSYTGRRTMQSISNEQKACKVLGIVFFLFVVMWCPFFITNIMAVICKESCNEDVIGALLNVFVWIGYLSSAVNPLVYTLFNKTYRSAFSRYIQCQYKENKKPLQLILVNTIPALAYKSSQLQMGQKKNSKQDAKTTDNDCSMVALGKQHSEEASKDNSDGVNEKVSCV

human 5-HT2C receptor [2] = target: T2, human 5-HT2C receptor (Homo sapiens, UniProt P28335); experiment: Competition binding to the human 5-HT2C receptor ([3H]mesulergine, HeLa-5-HT2C membranes); details: for Selectivity 5-HT2C/2A (binding, in parentheses): from Ki values, Table 1; for Ki: human receptor, [3H]mesulergine displacement, no unit in the table, nM, read-out: 5-HT2C Ki (in parentheses) (converted)
T2 construct: expressed in transfected cells; host or cells: HeLa (HeLa-5-HT2C cell line)
T2 sequence (P28335 33-458): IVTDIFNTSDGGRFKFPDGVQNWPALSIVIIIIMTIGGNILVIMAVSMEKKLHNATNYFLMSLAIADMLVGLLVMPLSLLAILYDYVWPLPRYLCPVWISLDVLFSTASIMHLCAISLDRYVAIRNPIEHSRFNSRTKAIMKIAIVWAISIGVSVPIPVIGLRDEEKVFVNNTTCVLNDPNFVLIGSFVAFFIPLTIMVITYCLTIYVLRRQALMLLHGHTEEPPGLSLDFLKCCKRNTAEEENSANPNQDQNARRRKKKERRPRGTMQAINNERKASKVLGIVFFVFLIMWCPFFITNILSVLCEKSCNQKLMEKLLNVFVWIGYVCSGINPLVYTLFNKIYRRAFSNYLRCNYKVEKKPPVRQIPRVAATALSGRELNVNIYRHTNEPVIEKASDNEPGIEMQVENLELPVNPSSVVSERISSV

human 5-HT2A receptor [3] = target: T1, human 5-HT2A receptor; experiment: Ca2+ mobilization in CHO h5-HT2A cells; format: cell-based; details: for Selectivity 5-HT2A/2C (functional): from EC50 values, Table 2; for Emax: relative efficacy, % of response to 5-HT
human 5-HT2C receptor [4] = target: T2, human 5-HT2C receptor; experiment: Ca2+ mobilization in HeLa h5-HT2C cells; format: cell-based; details: for EC50: no unit in the table, nM; for Emax: HeLa, read-out: 5-HT2C % Emax; for Selectivity 5-HT2C/2A (functional, in parentheses): from EC50 values, Table 2
human 5-HT2B receptor = human 5-HT2B receptor (Homo sapiens, UniProt P41595); experiment: Competition binding to the human 5-HT2B receptor ([3H]LSD, CHO-5-HT2B membranes)
human 5-HT2B receptor, sequence (P41595 whole entry): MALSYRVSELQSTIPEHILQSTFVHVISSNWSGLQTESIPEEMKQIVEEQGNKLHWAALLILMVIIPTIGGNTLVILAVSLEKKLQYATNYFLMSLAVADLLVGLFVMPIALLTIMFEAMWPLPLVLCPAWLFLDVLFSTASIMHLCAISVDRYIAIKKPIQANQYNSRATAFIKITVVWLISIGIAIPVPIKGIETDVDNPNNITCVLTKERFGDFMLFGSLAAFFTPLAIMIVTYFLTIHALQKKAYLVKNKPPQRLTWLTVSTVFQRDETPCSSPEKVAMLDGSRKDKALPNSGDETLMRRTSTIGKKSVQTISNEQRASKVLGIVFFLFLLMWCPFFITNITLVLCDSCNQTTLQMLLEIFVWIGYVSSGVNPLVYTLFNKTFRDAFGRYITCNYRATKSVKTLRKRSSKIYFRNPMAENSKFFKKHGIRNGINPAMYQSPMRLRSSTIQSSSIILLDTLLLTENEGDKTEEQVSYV

[5] = no unit in the table, nM, read-out: 5-HT2A Ki (in parentheses) (converted)
[6] = Ca2+ mobilization, no unit in the table, nM, read-out: 5-HT2A EC50 (in parentheses) (converted)
[7] = Ca2+ mobilization, read-out: 5-HT2C EC50 (in parentheses) (converted)
[8] = Ca2+ mobilization, pEC50 ± SEM, read-out: 5-HT2A pEC50 (converted)

| SMILES | Selectivity 5-HT2A/2C (binding) (human 5-HT2A receptor [1]) | Ki (human 5-HT2A receptor [1]; [5]) [nM] | Selectivity 5-HT2C/2A (binding, in parentheses) (human 5-HT2C receptor [2]) | Ki (human 5-HT2C receptor [2]) [nM] | EC50 (human 5-HT2A receptor [3]; [6]) [nM] | Selectivity 5-HT2A/2C (functional) (human 5-HT2A receptor [3]) | Emax (human 5-HT2A receptor [3]) [%] | EC50 (human 5-HT2C receptor [4]; [7]) [nM] | Emax (human 5-HT2C receptor [4]) [%] | Selectivity 5-HT2C/2A (functional, in parentheses) (human 5-HT2C receptor [4]) | Ki (human 5-HT2B receptor) [nM] | functional activity at h5-HT2A receptor (in words) (human 5-HT2A receptor [3]; Ca2+ mobilization) | 5-HT2A pEC50 (human 5-HT2A receptor [3]; Ca2+ mobilization, pEC50 ± SEM) | EC50 (human 5-HT2A receptor [3]; [8]) [nM] | EC50 (human 5-HT2C receptor [4]; 5-HT2C EC50 (in parentheses), Ca2+ mobilization) [nM] | times less potent than lorcaserin (human 5-HT2C receptor [4]; 5-HT2C functional potency) | functional activity at h5-HT2C receptor (in words) (human 5-HT2C receptor [4]; Ca2+ mobilization) | Ki (human 5-HT2A receptor [1]; read-out: 5-HT2A pKi ± S.E.M. (converted)) [nM] |
| --- | --- | --- | --- | --- | --- | --- | --- | --- | --- | --- | --- | --- | --- | --- | --- | --- | --- | --- |
| CCOc1ccc(CNCCc2c[nH]c3ccccc23)cc1 [Compound 15, N-(4-Ethoxybenzyl)-[2-(1H-indol-3-yl)ethyl]amine] | 2.66 | 275 | 0.36 | 741 | 363 | 0.032 | 36.7 ± 6.13 | 11.7 | 93.2 ± 3.26 | 30.9 | 269 | – | – | – | – | – | – | – |
| Clc1ccc(CNCCc2c[nH]c3ccccc23)cc1 [Compound 16, N-(4-Chlorobenzyl)-[2-(1H-indol-3-yl)ethyl]amine] | 1.37 | 708 | 0.73 | 955 | 58.9 | 0.85 | 80 ± 4.54 | 50.1 | 98.3 ± 4.18 | 1.17 | 224 | – | – | – | – | – | – | – |
| Brc1ccc(CNCCc2c[nH]c3ccccc23)cc1 [Compound 17, N-(4-Bromobenzyl)-[2-(1H-indol-3-yl)ethyl]amine] | 1.09 | 1000 | 0.92 | 1070 | – | – | – | 6760 | 110 ± 4.3 | – | 263 | too low for quantification | – | – | – | – | – | – |
| COc1cccc(CNCCc2c[nH]c3ccccc23)c1O [Compound 19, N-(2-Hydroxy-3-methoxybenzyl)-[2-(1H-indol-3-yl)ethyl]amine] | 0.58 | 26.3 | 1.72 | 16.6 | 49 | 1.91 | 26.2 ± 2.34 | 93.3 | 107 ± 6.91 | 0.52 | 13.2 | – | – | – | – | – | – | – |
| Oc1c(Br)cccc1CNCCc1c[nH]c2ccccc12 [Compound 21, N-(3-Bromo-2-hydroxybenzyl)-[2-(1H-indol-3-yl)ethyl]amine] | 9.8 | 14.1 | 0.10 | 138 | 15800 | 0.0017 | 40.4 ± 6.23 | 27.5 | 98.8 ± 2.83 | 575 | 15.5 | extremely weak h5-HT2A partial agonist | 4.80 | 15800 | 27 | about 3 times | full agonist | – |
| Oc1c(F)cccc1CNCCc1c[nH]c2ccccc12 [Compound 22, N-(3-Fluoro-2-hydroxybenzyl)-[2-(1H-indol-3-yl)ethyl]amine] | 0.82 | 209 | 1.22 | 178 | 162 | 0.105 | 53.6 ± 4.49 | 17 | 104 ± 4.96 | 9.55 | 129 | – | – | – | – | – | – | – |
| Cc1ccc(O)c(CNCCc2c[nH]c3ccccc23)c1 [Compound 23, N-(2-Hydroxy-5-methylbenzyl)-[2-(1H-indol-3-yl)ethyl]amine] | 0.36 | 741 | 2.77 | 269 | 110 | 0.91 | 43.6 ± 0.9 | 100 | 89.4 ± 3.86 | 1.10 | 155 | – | – | – | – | – | – | – |
| Oc1ccc(F)cc1CNCCc1c[nH]c2ccccc12 [Compound 24, N-(5-Fluoro-2-hydroxybenzyl)-[2-(1H-indol-3-yl)ethyl]amine] | 0.14 | 759 | 7.15 | 105 | 75.9 | 0.35 | 71.6 ± 1.95 | 26.3 | 105 ± 2.19 | 2.88 | 77.6 | – | – | – | – | – | – | 794 |
| COc1ccc(F)cc1CNCCc1c[nH]c2ccccc12 [Compound 25, N-(5-Fluoro-2-methoxybenzyl)-[2-(1H-indol-3-yl)ethyl]amine] | 0.42 | 363 | 2.40 | 151 | 60.3 | 0.87 | 58 ± 1.95 | 52.5 | 110 ± 2.19 | 1.15 | 95.5 | – | – | – | – | – | – | – |
| COc1ccc(Br)cc1CNCCc1c[nH]c2ccccc12 [Compound 27, N-(5-Bromo-2-methoxybenzyl)-[2-(1H-indol-3-yl)ethyl]amine] | 0.12 | 1120 | 8.22 | 135 | 17800 | 0.015 | 69 ± 3.51 | 263 | 111 ± 4.63 | 67.6 | 91.2 | – | – | 17800 | – | – | – | – |
| COc1ccc(Cl)cc1CNCCc1c[nH]c2ccccc12 [Compound 28, N-(5-Chloro-2-methoxybenzyl)-[2-(1H-indol-3-yl)ethyl]amine] | 1.35 | 977 | 0.74 | 1320 | 8910 | 0.027 | 69.2 ± 2.67 | 240 | 110 ± 3.35 | 37.2 | 794 | – | – | 8910 | – | – | – | – |
| COc1ccc(OC)c(CNCCc2c[nH]c3ccccc23)c1 [Compound 29, N-(2,5-Dimethoxybenzyl)-[2-(1H-indol-3-yl)ethyl]amine] | 0.26 | 331 | 3.85 | 87.1 | 3470 | 0.038 | 39 ± 0.67 | 132 | 118 ± 4.45 | 26.3 | 57.5 | – | – | – | – | – | – | – |
| Oc1cc(Br)ccc1CNCCc1c[nH]c2ccccc12 [Compound 31, N-(4-Bromo-2-hydroxybenzyl)-[2-(1H-indol-3-yl)ethyl]amine] | 0.38 | 1550 | 2.63 | 603 | 24500 | 0.033 | 62.5 ± 10.8 | 813 | 74.8 ± 2.6 | 30.2 | 110 | – | – | – | – | – | – | – |
| Oc1cccc(Br)c1CNCCc1c[nH]c2ccccc12 [Compound 33, N-(6-Bromo-2-hydroxybenzyl)-[2-(1H-indol-3-yl)ethyl]amine] | 0.067 | 1660 | 15 | 112 | 5890 | 0.13 | 34.4 ± 1.37 | 794 | 104 ± 2.91 | 7.41 | 69.2 | – | – | – | – | – | – | – |
| Oc1cccc(F)c1CNCCc1c[nH]c2ccccc12 [Compound 34, N-(6-Fluoro-2-hydroxybenzyl)-[2-(1H-indol-3-yl)ethyl]amine] | – | 229 | – | 155 | 39.8 | 0.47 | 49.3 ± 3.23 | 18.6 | 91.7 ± 6.6 | 2.13 | 115 | – | – | – | – | – | – | – |
| COc1ccc(CNCCc2c[nH]c3ccccc23)cc1OC [Compound 36, N-(3,4-Dimethoxybenzyl)-[2-(1H-indol-3-yl)ethyl]amine] | 0.92 | 1290 | 1.09 | 1200 | 2240 | 0.026 | 50.5 ± 8.27 | 57.5 | 100 ± 2.85 | 38.9 | 288 | – | – | – | – | – | – | – |
